Experimental data taken from patent US10889611B2, “Sialyltransferase inhibitors and uses thereof” (Academia Sinica, priority 2015, dated 2021).

What was measured:
[1] = tested on: PANC-1 cells; assay: Migration and invasion analysis, PANC-1 cells; type: cell-based, human; details: 1 and 20 μM for 24 and 48 hours, FIG. 7
Method: (§1) Migration assays were done using a transwell, in which a polycarbonate filter pre-coated with Matrigel (8-μm pores, Millicell; Millipore, Billerica, Mass.) was inserted therein. Cells were serum-starved for 24 h and then seeded (5×10^5 cells per upper chamber) and treated with or without the present compound(s) (concentrations as indicated), and the assays were run for 6 h. Cells that had migrated to the underside of the inserted filter were stained with hematoxylin solution. The cells in the upper side of the inserted membrane were rubbed with a cotton swab. The migrated cells on the underside were pictured in a 200× magnification field and quantified.
(§2) In this example, the ability of the FCW551 in suppressing the migration and/or invasion of pancreatic cancer cells was investigated. Briefly, PANC-1 and LN cells were respectively treated with 1 and 20 μM FCW551 for 24 and 48 hours before subjecting to the migration and invasion analysis. Results are illustrated in FIG. 7.

[2] = tested on: PANC-1 cells; assay: MTT assay cytotoxicity, PANC-1 cells; type: cell-based, human; details: 1, 5, 10, 25 and 50 μM for 24 and 48 hours, FIG. 6
Method: (§3) The absorbance of the solution at 570 nm was measured by spectrophotometer.
(§4) The cytotoxicity of FCW551 on PANC-1 and LN cells were determined by MTT assay in according to procedures described in the “Materials and Methods” section.

[3] = tested on: LN cells; assay: Migration and invasion analysis, LN cells; type: cell-based, human; details: 1 and 20 μM for 24 and 48 hours, FIG. 7
Description: (§5) The LN cell line was established by orthotopically injected 5×10^5 PANC-1 cells to the pancreas of SCID mice. After one month, mestastasis was found in lymph nodes, cancerous cells were then isolated from lymph nodes. The genomic DNA of the isolated cancer cells from lymph nodes were extracted and sent for genotyping analysis, which confirmed that LN cells were indeed derived from PANC-1 cells (data not shown).
as §1, §2

[4] = tested on: LN cells; assay: MTT assay cytotoxicity, LN cells; type: cell-based, human; details: 1, 5, 10, 25 and 50 μM for 24 and 48 hours, FIG. 6
Method: as §5, §3, §4

C[C@H](CCC(=O)NCCOCCOCCN=[N+]=[N-])C1CCC2C3CC[C@@H]4C[C@H](NC(=O)[C@H](CC(=O)O)Nc5ccc([N+](=O)[O-])c6nonc56)CC[C@]4(C)C3CC[C@@]21C (stereo partly drawn) [Compound 17, (3S)-4-(((3R,5R,10S,13R)-17-((R)-5-((2-(2-(2-azidoethoxy)ethoxy)ethyl)amino)-5-oxopentan-2-yl)-10,13-dimethylhexadecahydro-1H-cyclopenta[a]phenanthren-3-yl)amino)-3-((7-nitrobenzo[c][1,2,5]oxadiazol-4-yl)amino)-4-oxobutanoic acid]
invasion ability [1]: greatly suppressed
migration ability [1]: greatly suppressed
melting point: 90 to 91 °C
cytotoxicity [2]: no significant cytotoxicity
invasion ability [3]: greatly suppressed
migration ability [3]: greatly suppressed
cytotoxicity [4]: no significant cytotoxicity
